# From patent US8227453B2, “Pharmaceutical formulations and uses thereof in the treatment of female sexual dysfunction” (Emotional Brain B.V., priority 2004, dated 2012)
# Entries after “also recorded” stand apart in the source; their conditions may differ.
# Columns and labels:
# women suffering from FSD [1] = assay: Vaginal Pulse Amplitude (VPA) response to erotic film in women with FSD, placebo controlled cross-over; format: in vivo, human; settings: for Vaginal Pulse Amplitude during exposure to erotic stimuli (vaginal arousability) compared with placebo: testosterone 0.5 mg sublingual, Vardenafil 10 mg, four hours after medication; for increase in VPA between neutral and erotic films, before medication (trial 1) versus after medication (trial 4): within drug condition
# Description: Fourteen women with a heterosexual orientation (mean age: 40.6 years; sd: 10.4; premenopausal n=8, postmenopausal n=6) who have been experiencing FSD (i.e., low sexual desire, low sexual arousal or decreased orgasm potency) for at least six months prior to study entry, participated in this study. Subjects in fertile age used contraceptives (IUDs, sterilization, oral contraceptives except contraceptives containing anti-androgens). A pregnancy test was part of the procedure. Subjects were interviewed and examined by a gynecologist to exclude pregnancy or breast feeding, vaginal infections, major operations to the vagina and/or vulva or unexplained gynecological complaints. […] Cardiovascular condition was tested and ECG was checked for significant abnormalities. Standard blood chemistry and hematology tests were performed. […] Subjects could not make appointments during their period of menstruation.
# Each subject underwent the four different drug treatments (i.e., PDE5 inhibitor, testosterone, PDE5 inhibitor+testosterone and placebo) at four separate experimental days. The four experimental days were separated by at least a three-day period.
# During each day of drug manipulation, subjects underwent the following measurements: • −1:00 hours: Emotional Stroop Task • −0:15 hours: Trial 1 • 0:00 hours: Intake drugs • 0:05 hours: Trial 2 • 2:45 hours: Trial 3 • 4:15 hours: Trial 4
# Each day started with a physical examination (measurements of vital signs, blood pressure, heart rate, temperature and respiration rate). Blood samples (8 ml) were taken for hormone analyses. Subjects then were seated in the sound attenuated, dimly lit experimental room. In order to make this room less “sterile,” geographic posters were hung on the walls and an air perfumer was placed behind the subjects. The subjects then executed the emotional Stroop task (15 minutes). The experimenter brought the vaginal probe and the subject was left alone in the room to insert the probe. The subject was instructed to sit as quietly as possible while viewing the film fragments. A ten-minute neutral fragment was followed by a five-minute erotic film fragment. After these baseline measurements, the subjects took medication: testosterone (0.5 mg or placebo) sublingually, with cyclodextrins as carrier and Vardenafil (10 mg or placebo) hidden in a capsule. The medication was followed by another set of neutral (five minutes) and erotic (five minutes) film fragments. The subjects removed the vaginal probe and were taken to a waiting room for a pause of two hours. During this pause, they could consume their lunch. Unlimited coffee and tea were available. This pause was followed by a third set of neutral (five minutes) and erotic (five minutes) film fragments.
# Again subjects had to wait for two hours so that the last VPA measurement was taken four hours after medication. This last film-trial (neutral, erotic film fragments) was followed by a second presentation of the emotional Stroop. The experimental day ended with a short physical examination including drawing of a blood sample (8 ml for hormone analyses) and collection of AE and SAE.
# During the testosterone condition, one subject became nauseated watching the erotic film and decided not to participate further that day. For the psychophysiological evaluation, the VPA (Vaginal Pulse Amplitude) is used. The VPA reflects phasic changes in the blood volume corresponding with each heartbeat; higher levels indicate higher levels of blood flow. The dependent variable used is the amplitude of the pulse wave. Before the mean VPA was calculated, the raw signal (sample rate was 20 Hz) was digitally bandpass filtered with a Butterworth filter (−3 dB cutoff frequency range 0.7-1.5 Hz; 40 dB down/octave). Movement artifacts were detected by visual inspection of the signal and removed manually. Hereafter, the amplitude was measured as the distance between the top and bottom of a pulse wave. […]
# [2] = typical value; cited from earlier work
# [3] = tested on: women suffering from Female Sexual Dysfunction; assay: Sexual desire, genital sensations and subjective sexual arousal in women with FSD; format: in vivo, human
# Description: Attentional engagement is an important function for normal human sexuality.
# [4] = tested on: sexually functional women; settings: cited from earlier work
# [5] = tested on: hypogonadotropic hypogonadal females; assay: Vaginal responsiveness during oral testosterone substitution; format: in vivo, human; settings: dosed each morning
# Method: An important aspect of sexual motivation is physiological sexual responding. […] In both studies, subjects received testosterone each morning, but patients in the first experiment were tested in the afternoon and patients in the second experiment in the morning. The different outcomes on physiological responding between these experiments may be caused by a time-dependent effect of testosterone on vaginal arousal.
# women suffering from FSD [6] = tested on: women suffering from FSD
# Description: An unmasked and a masked version of the Emotional Stroop Task comparing color-naming latencies on neutral and erotic words were used. In both the unmasked and the masked condition, eight erotic and neutral words are presented in different colors (i.e., red, green, blue and yellow). An extra set of stimuli consisting of letter strings was used for practice trials. Subjects were instructed to ignore the content of the words and to name the color of the words as quickly as possible (in the masked condition, the color of the mask has to be named). Each trial consisted of a fixation point which is shown for 750 ms, followed by the target stimulus (the colored neutral or erotic word). In the masked condition, the word picture is presented for about 24 ms and then masked by randomly cut, reassembled letters in the same color. A microphone connected to a voice-level detector was placed in front of the subject. Initiation of vocal response was registered by the computer's clock and terminated the target presentation (with a no-response maximum of 3000 ms). Thirty-two neutral words and thirty-two erotic words were presented blocked. The same words were used for each test, however, the sequence of words and colors differed all eight times this task was used.
# To test for associations with changes in attentional processes, we used the StroopRT as the measurement point. StroopRT is the difference in mean reaction times on color naming of the neutral and the sexual words.
# [7] = Plasma level of testosterone after sublingual administration; settings: single sublingual dose; of short duration
# [8] = tested on: healthy sexually functional women; settings: 0.5 mg sublingual
# Method: In a recently conducted experiment (not published) in healthy sexually functional women, we used a delayed measurement design in which subjects ingested one dosage of testosterone (0.5 mg sublingual) or placebo and after four hours, underwent fMRI while watching neutral and erotic videos. Hereafter, subjects were conducted to a laboratory where their VPA in response to neutral and erotic videos was measured.
# [9] = tested on: healthy sexually functional women; parameters: species or system human; settings: in vivo
# Method: In a recently conducted experiment (not published) in healthy sexually functional women, we used a delayed measurement design in which subjects ingested one dosage of testosterone (0.5 mg sublingual) or placebo and after four hours, underwent fMRI while watching neutral and erotic videos. Hereafter, subjects were conducted to a laboratory where their VPA in response to neutral and erotic videos was measured. […] Because of testosterone's delayed effect on enhancing VPA, we expected enhancement of these “erotic” structures in this fMRI study.
# [10] = tested on: sexually functional women; assay: Vaginal responsiveness to erotic films after a single sublingual dose in sexually functional women
smiles,measurement,setting,value
"CCCc1nc(C)c2c(=O)nc(-c3cc(S(=O)(=O)N4CCN(CC)CC4)ccc3OCC)[nH]n12.Cl [Vardenafil, piperazine, 1-[[3-(1,4-dihydro-5-methyl-4-oxo-7-propylimidazo[5,1-f][1,2,4]triazin-2-yl)-4-ethoxyphenyl]sulfonyl]-4-ethyl-, monohydrochloride]",Vaginal Pulse Amplitude during exposure to erotic stimuli (vaginal arousability) compared with placebo,"women suffering from FSD [1]; women with FSD, listed as PDE5 inhibitor, monohydrochloride",no effect
same,Vaginal Pulse Amplitude during exposure to erotic stimuli (vaginal arousability) compared with placebo,"women suffering from FSD [1]; women with FSD, monohydrochloride",did not lead to a significant difference
same,"increase in VPA between neutral and erotic films, before medication (trial 1) versus after medication (trial 4)",women suffering from FSD [1]; women with FSD,insignificant
same,time to peak plasma concentration after administration,[2],about one
same,"sexual desire, genital sensations / subjective sexual arousal compared with placebo",[3],no effect
"CCCc1nn(C)c2c(=O)[nH]c(-c3cc(S(=O)(=O)N4CCN(C)CC4)ccc3OCC)nc12.O=C(O)CC(O)(CC(=O)O)C(=O)O [sildenafil, 1-[[3-(6,7-dihydro-1-methyl-7-oxo-3-propyl-1Hpyrazolo[4,3-d]pyrimidin-5-yl)-4-ethoxyphenyl]sulfonyl]-4-methylpiperazine citrate]",sexual performance,[4],improves
CCCCCCCCCCC(=O)O[C@H]1CC[C@H]2[C@@H]3CCC4=CC(=O)CC[C@]4(C)[C@H]3CC[C@]12C [testosterone undecanoate],"vaginal responsiveness, first group","[5]; 40 mg orally per day, eight weeks, tested in the afternoon",enhanced
same,"vaginal responsiveness, another group (unpublished data)",[5]; tested in the morning,not found
"C[C@]12CC[C@H]3[C@@H](CCC4=CC(=O)CC[C@@]43C)[C@@H]1CC[C@@H]2O [testosterone, 17-β-hydroxyandrost-4-en-3-one]","VPA to erotic stimuli over trials, sexually abused subjects","women suffering from FSD [1]; women with FSD sexually abused during childhood, with or without testosterone",no increase
same,"VPA response to the erotic film, not-abused subjects, testosterone versus no-testosterone conditions","women suffering from FSD [1]; women with FSD, not abused",increases
same,"increase in VPA from before to after measurement, drug conditions containing the steroid versus without the steroid","women suffering from FSD [1]; women with FSD, interaction F(1.12)=5.75, p<0.04, pooled steroid conditions",significantly higher
same,Vaginal Pulse Amplitude during exposure to erotic stimuli (vaginal arousability) compared with placebo,women suffering from FSD [1]; women with FSD,no effect; also recorded: insufficient for a significant increase
same,"increase in VPA between neutral and erotic films, before medication (trial 1) versus after medication (trial 4)",women suffering from FSD [1]; women with FSD,insignificant
same,"StroopRT (attention for sexual stimuli), not-abused subjects","women suffering from FSD [6]; masked condition, decrease = attention for sexual stimuli increases",decreases
same,"StroopRT (attentional bias for sexual stimuli), sexually abused subjects","women suffering from FSD [6]; masked condition, increase = bias away from sexual stimuli",increases
same,"attentional engagement (or withdrawal) for sexual cues, as compared with placebo and/or a PDE5 inhibitor",women suffering from FSD [6]; women with FSD,increase
same,plasma levels of testosterone after intake,[7],sharp increase
same,"relative change in VPA as compared with the placebo, after fMRI procedure",[8],smaller
same,"sexual desire, genital sensations / subjective sexual arousal compared with placebo",[3],no effect
same,activation of septum and left dorsolateral PFC (fMRI),[9],very significant increase
same,vaginal responsiveness when exposed to visual sexual stimuli,"[10]; eight sexually functional women, single sublingual dose versus placebo",striking increase
same,time lag between plasma testosterone peak and increase in vaginal responsiveness,"[10]; sexually functional women, sublingual",three to four and a half
